Measured values published in patent US7105566B2, “Methods of treatment during vascular procedures” (Allergan, Inc., priority 2002, dated 2006).
Several values for one entry are separate records, joined by “and”; a condition that tells them apart may be missing. Identical values can stand only once.

Assays:
male SJL mice [1] = experiment: Serum triglycerides (STG) in male SJL mice; type: in vivo, mouse
Method: Male SJL mice were dosed orally with vehicle, Compound 1 (an RAR pan-antagonist), or Compound 3 (an RARE antagonist) for 4 consecutive days. The structure and synthesis of Compound 1 is described in Example I. The structure of Compound 3 is shown below, and the compound was synthesized using routine methods:
The test compounds were dissolved in corn oil and given at a dosage/volume of 20 mg/5 ml/kg.
On day 3, serum triglycerides (STG) were determined from samples collected at 7 a.m.
(§1) On day 4, animals were fasted after dosing, starting at 8 a.m. Following 6 hours of fasting, blood samples were collected prior to intravenous injection of WR-1339 at 100 mg/5 ml/kg. Additional serum samples were collected at 1 and 2 hours after WR-1339 injection. WR-1339 is a detergent that inactivates lipoprotein lipase and thus prevents the removal of triglycerides from circulation. By measuring the increase of STG after WR-1339 administration in fasted animals, the hepatic triglyceride (HTG) output during fasting can be estimated.
(§2) Due to the lack of effect of Compound 3 at 20 mg/kg, the dose was increased to 100 mg/kg in the same set of mice. STG was determined on day 3 prior to dosing (Day 3, 8 a.m.). […] To ensure that Compound 3 would be bioavailable, Compound 3 was dissolved in DMSO and given by intraperitoneal injections, once at 4 p.m. on day 3 and once at 8 a.m. on day 4, at a dosage of 100 mg/kg/injection. Administration of WR-1339 and blood collections on day 4 were similarly conducted as described above.

male SJL mice [2] = experiment: Hepatic triglyceride (HTG) output after WR-1339 injection in fasted male SJL mice; type: in vivo, mouse
Method: as §1, §2

female ZDF rats = experiment: Serum triglycerides and cholesterol in female ZDF rats, Compound 1 and Compound 2 at 10 mg/kg; type: in vivo, rat; conditions: 10 mg/kg oral
Method: A similar experiment to that described above was performed. Briefly, female ZDF rats (12 weeks old) were fed either a PM 5008 diet or a GMI 13004 diet. Control vehicle consisted of 2% DMSO and 98% corn oil. Compound 1 and Compound 2 were administered at a dosage of 10 mg/kg body weight. Dosings were administered at approximately 8 a.m. Serum was collected on the first day of dosing at approximately 8 a.m. (Day 1, 0 hour) and 2 p.m. (Day 1, 6 hour); the fourth day of dosing at approximately 8 a.m. (Day 4, 0 hour); and the last day of dosing at approximately 8 a.m. (Day 7, 0 hour) and 2 p.m. (Day 7, 6 hour). The levels of triglycerides and cholesterol in the serum samples were measured. The results are shown in Table 2 and are illustrated graphically in FIGS. 3A and 3B.

[3] = test system: chronic hypertriglyceridemic patients; conditions: de Man et al. 2000; cited from earlier work
[4] = GMI 13004 diet, group mean of 5 rats, first day of dosing, 2 p.m.
[5] = GMI 13004 diet, group mean of 5 rats, first day of dosing, about 8 a.m. (baseline)
[6] = GMI 13004 diet, group mean of 5 rats, fourth day of dosing, 8 a.m.
[7] = GMI 13004 diet, group mean of 5 rats, last day of dosing, 2 p.m.
[8] = GMI 13004 diet, group mean of 5 rats, last day of dosing, 8 a.m.
[9] = GMI 13004 diet, individual animals, first day of dosing, 2 p.m.
[10] = GMI 13004 diet, individual animals, first day of dosing, about 8 a.m. (baseline)
[11] = GMI 13004 diet, individual animals, fourth day of dosing, 8 a.m.
[12] = GMI 13004 diet, individual animals, last day of dosing, 2 p.m.
[13] = GMI 13004 diet, individual animals, last day of dosing, 8 a.m.

Cc1ccc(C2=CCC(C)(C)c3cc(O)c(C(=O)Nc4ccc(C(=O)O)c(F)c4)cc32)cc1 [Compound 3]
non-fasting STG (Day 3, 8 a.m.) (male SJL mice [1]; 20 mg/kg oral daily): not observed
STG 16 hours after a single intraperitoneal dose (Day 4, 8 a.m.) (male SJL mice [1]; 100 mg/kg intraperitoneal in DMSO): clear lowering of STG
STG on day 3 prior to dosing (Day 3, 8 a.m.) (male SJL mice [1]; 100 mg/kg oral): no lowering of STG was observed
STG after fasting (Day 4, 2 p.m.) (male SJL mice [1]; 100 mg/kg/injection intraperitoneal): effect disappeared after fasting
HTG output after WR-1339 injection (male SJL mice [2]; 20 mg/kg oral daily for 4 days, fasted): not observed
HTG output (male SJL mice [2]; 100 mg/kg/injection intraperitoneal, WR-1339, fasted): reduced

Cc1ccc(C2=CC(C)(C)Oc3c(Br)cc(C(=O)Nc4ccc(C(=O)O)c(F)c4)cc32)cc1 [Compound 2]
effect on lowering serum cholesterol (female ZDF rats): more modest effect
serum triglycerides as % of pre-treatment levels (female ZDF rats): about 40%
Cholesterol day 1, 6 hr, Mean (female ZDF rats; [4]): 106
Triglycerides day 1, 6 hr, Mean (female ZDF rats; [4]): 1321
Cholesterol day 1, 0 hr, Mean (female ZDF rats; [5]): 119
Triglycerides day 1, 0 hr, Mean (female ZDF rats; [5]): 1471
Cholesterol day 4, 0 hr, Mean (female ZDF rats; [6]): 77
Triglycerides day 4, 0 hr, Mean (female ZDF rats; [6]): 571
Cholesterol day 7, 6 hr, Mean (female ZDF rats; [7]): 62
Triglycerides day 7, 6 hr, Mean (female ZDF rats; [7]): 602
Cholesterol day 7, 0 hr, Mean (female ZDF rats; [8]): 66
Triglycerides day 7, 0 hr, Mean (female ZDF rats; [8]): 560
Cholesterol day 1, 6 hr (female ZDF rats; [9]): 114 and 84 and 90 and 108 and 132
Triglycerides day 1, 6 hr (female ZDF rats; [9]): 1260 and 1338 and 1140 and 1344 and 1524
Cholesterol day 1, 0 hr (female ZDF rats; [10]): 120 (2×) and 96 (2×) and 162
Triglycerides day 1, 0 hr (female ZDF rats; [10]): 1464 and 1194 and 1284 and 1668 and 1746
Cholesterol day 4, 0 hr (female ZDF rats; [11]): 84 and 66 and 72 (2×) and 90
Triglycerides day 4, 0 hr (female ZDF rats; [11]): 642 and 804 and 210 and 630 and 570
Cholesterol day 7, 6 hr (female ZDF rats; [12]): 72 and 60 (2×) and 54 and 66
Triglycerides day 7, 6 hr (female ZDF rats; [12]): 402 and 600 and 360 and 738 and 912
Cholesterol day 7, 0 hr (female ZDF rats; [13]): 78 (2×) and 60 (2×) and 54
Triglycerides day 7, 0 hr (female ZDF rats; [13]): 294 and 588 and 474 and 726 and 720

CC(C)c1c(C(=O)Nc2ccccc2)c(-c2ccccc2)c(-c2ccc(F)cc2)n1CC[C@@H](O)C[C@@H](O)CC(=O)O [atorvastatin]
effect on impaired vasodilation [3]: reverse the impaired vasodilation
